Assay results as given in patent publication US20240217947A1, “Morpholinylquinazoline Compound, Pharmaceutical compositions thereof and Use Thereof” (SHANGHAI YINGLI PHARMACEUTICAL CO., LTD, priority 2022, published 2024).
pIC50: −log10 of the molar value.

What was measured:
PI3Kδ = PI3Kδ (Homo sapiens, UniProt O00329); assay: PI3Kδ enzyme activity inhibition IC50 evaluation assay (ADP-Glo Kinase Assay); format: biochemical; conditions: ATP 25 μM, PIP2 50 μg/mL, 1 hour room temperature, read-out: PI3K-δ IC50
Description: (§1) Effec Example 1 IC50 evaluation assay for PI3Kα, PI3Kδ, PI3Kβ and PI3Kγ enzyme activity inhibition
(§2) The experiment was performed using the ADP-Glo Kinase Assay kit, following the instructions. The following buffer solutions were prepared: 50 mM HEPES, pH 7.5, 3 mM MgCl2, 1 mM EGTA, 100 mM NaCl, 0.03% CHAPS, 2 mM DTT. The test compound samples were dissolved in DMSO and added to the screening system at a certain starting concentration such as 10 μM, 3-fold dilution, while setting up both DMSO control and no kinase control. The optimal concentrations of PI3Kα, PI3Kδ, PI3Kβ and PI3Kγ enzymes, substrate (PIP2) and ATP were prepared in buffer. The enzyme reaction system included: buffer, ATP 25 μM, kinase substrate (PIP2, 50 μg/mL), kinases [PI3Kα (0.15 μg/mL), PI3Kδ (1.2 μg/mL), PI3Kβ (0.3 μg/mL) and PI3Kγ (2.5 μg/mL)], etc. The reaction system was reacted at room temperature for 1 hour. The reaction was terminated by adding a termination reagent (ADP-Glo reagent, 5 μL), and the ADP content in the system was detected using a detection reagent (Kinase Detection Reagent, 10 μL). Signal data were collected using the Envision instrument. Calculate the percentage of (%) inhibition according to the following formula: % inhibition=(DMSO control signal value−sample signal value)/(DMSO control signal value−no-kinase control signal value). The IC50 value was obtained by fitting the curve using the formula Y=Bottom+(Top-Bottom)/(1+(IC50/X)^HillSlope).

HDAC6 = target: T1, HDAC6 (Homo sapiens, UniProt Q9UBN7); assay: HDAC6 enzyme activity inhibition IC50 evaluation experiment; format: biochemical; conditions: HDAC6 5 nM, acetylated peptide 11 μM, trypsin, fluorescence
T1 sequence (Q9UBN7 1-1215): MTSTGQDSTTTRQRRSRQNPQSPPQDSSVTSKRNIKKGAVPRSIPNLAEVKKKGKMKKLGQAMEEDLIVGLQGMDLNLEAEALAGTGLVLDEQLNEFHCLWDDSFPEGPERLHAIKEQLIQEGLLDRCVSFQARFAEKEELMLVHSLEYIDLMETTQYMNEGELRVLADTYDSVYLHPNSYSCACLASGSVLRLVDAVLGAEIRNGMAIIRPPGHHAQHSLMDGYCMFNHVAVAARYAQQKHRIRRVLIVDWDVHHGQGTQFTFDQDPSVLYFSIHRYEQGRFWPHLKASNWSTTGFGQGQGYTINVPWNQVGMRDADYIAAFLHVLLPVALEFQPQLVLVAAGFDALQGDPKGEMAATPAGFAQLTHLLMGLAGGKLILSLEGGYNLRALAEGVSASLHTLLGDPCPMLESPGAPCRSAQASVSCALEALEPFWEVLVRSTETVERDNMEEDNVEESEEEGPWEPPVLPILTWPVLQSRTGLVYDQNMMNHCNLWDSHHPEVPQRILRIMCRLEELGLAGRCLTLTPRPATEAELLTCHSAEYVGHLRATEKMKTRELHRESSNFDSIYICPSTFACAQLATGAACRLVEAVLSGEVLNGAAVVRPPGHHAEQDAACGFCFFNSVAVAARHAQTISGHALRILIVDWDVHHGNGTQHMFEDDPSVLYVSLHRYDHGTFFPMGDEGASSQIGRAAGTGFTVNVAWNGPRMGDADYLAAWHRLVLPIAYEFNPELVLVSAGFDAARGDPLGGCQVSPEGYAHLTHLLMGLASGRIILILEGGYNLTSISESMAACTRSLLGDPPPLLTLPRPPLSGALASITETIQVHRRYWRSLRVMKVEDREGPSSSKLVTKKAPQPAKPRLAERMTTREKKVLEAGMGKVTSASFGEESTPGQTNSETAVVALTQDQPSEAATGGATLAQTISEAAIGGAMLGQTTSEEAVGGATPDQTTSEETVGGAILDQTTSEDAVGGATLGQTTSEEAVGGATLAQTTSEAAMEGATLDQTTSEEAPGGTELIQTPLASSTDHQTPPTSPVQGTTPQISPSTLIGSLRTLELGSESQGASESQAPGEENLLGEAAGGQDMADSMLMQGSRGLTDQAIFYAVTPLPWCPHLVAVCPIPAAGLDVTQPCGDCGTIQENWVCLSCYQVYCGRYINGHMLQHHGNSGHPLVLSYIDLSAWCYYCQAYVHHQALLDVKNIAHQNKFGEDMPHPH
Description: (§3) Effect Example 2 HDAC1, HDAC2, HDAC3, HDAC6 enzyme activity inhibition IC50 evaluation experiment
(§4) Buffer solution (50 mM Tris 7.5, 0.01% Tween-20, 50 mM NaCl) was prepared according to the kit instructions, and the enzyme solution and substrate solution (acetylated peptide with the addition of trypsin) were prepared using the buffer solution. The test compound samples were dissolved with DMSO and added to the screening system at a certain starting concentration such as 10 μM, 3-fold dilution, while setting up a DMSO control and no-enzyme control. The enzyme reaction system includes: buffer, enzyme [final concentration: HDAC1=10 nM, HDAC2=4 nM, HDAC3=7 nM, HDAC6=5 nM], substrate (acetylated peptide) [final concentration: Peptide(HDAC1)=8 μM, Peptide(HDAC2)=10 μM, Peptide(HDAC3)=5 μM, Peptide(HDAC6)=11 μM], trypsin [final concentration: Trypsin(HDAC1,2,3)=0.05 μM, Trypsin(HDAC6)=0.1 μM], etc. The enzymes and compounds were reacted at room temperature for 15 min. After adding the substrate and Trypsin, centrifugation was performed for 1 min, and the fluorescence signal data (excitation wavelength 355 nM/emission wavelength 460 nm) was read continuously for 60 min using Envision, and the linear reaction segment was selected to obtain the slope and thus calculate the inhibition rate at that concentration. The IC50 value was obtained by fitting the curve using the formula Y=Bottom+(Top-Bottom)/(1+(IC50/X)^HillSlope).

HDAC1 = HDAC1 (Homo sapiens, UniProt Q13547); assay: HDAC1 enzyme activity inhibition IC50 evaluation experiment; format: biochemical; conditions: HDAC1 10 nM, acetylated peptide 8 μM, trypsin, fluorescence
Description: as §3, §4

HDAC2 = HDAC2 (Homo sapiens, UniProt Q92769); assay: HDAC2 enzyme activity inhibition IC50 evaluation experiment; format: biochemical; conditions: HDAC2 4 nM, acetylated peptide 10 μM, trypsin, fluorescence
Description: as §3, §4

PI3Kα = PI3Kα (Homo sapiens, UniProt P42336); assay: PI3Kα enzyme activity inhibition IC50 evaluation assay (ADP-Glo Kinase Assay); format: biochemical; conditions: ATP 25 μM, PIP2 50 μg/mL, 1 hour room temperature, read-out: PI3K-α IC50
Description: as §1, §2

PI3Kβ = PI3Kβ (Homo sapiens, UniProt P42338); assay: PI3Kβ enzyme activity inhibition IC50 evaluation assay (ADP-Glo Kinase Assay); format: biochemical; conditions: ATP 25 μM, PIP2 50 μg/mL, 1 hour room temperature, read-out: PI3K-β IC50
Description: as §1, §2

PI3Kγ = PI3Kγ (Homo sapiens, UniProt P48736); assay: PI3Kγ enzyme activity inhibition IC50 evaluation assay (ADP-Glo Kinase Assay); format: biochemical; conditions: ATP 25 μM, PIP2 50 μg/mL, 1 hour room temperature, read-out: PI3K-γ IC50
Description: as §1, §2

[1] = tested on: relapsed and/or refractory B-cell malignant hematologic neoplasms; conditions: patients with relapsed and/or refractory B-cell malignant hematologic neoplasms, orally 80 mg once daily for 4 weeks; cited from earlier work

PI3Kδ, sequence (O00329 whole entry, species assumed): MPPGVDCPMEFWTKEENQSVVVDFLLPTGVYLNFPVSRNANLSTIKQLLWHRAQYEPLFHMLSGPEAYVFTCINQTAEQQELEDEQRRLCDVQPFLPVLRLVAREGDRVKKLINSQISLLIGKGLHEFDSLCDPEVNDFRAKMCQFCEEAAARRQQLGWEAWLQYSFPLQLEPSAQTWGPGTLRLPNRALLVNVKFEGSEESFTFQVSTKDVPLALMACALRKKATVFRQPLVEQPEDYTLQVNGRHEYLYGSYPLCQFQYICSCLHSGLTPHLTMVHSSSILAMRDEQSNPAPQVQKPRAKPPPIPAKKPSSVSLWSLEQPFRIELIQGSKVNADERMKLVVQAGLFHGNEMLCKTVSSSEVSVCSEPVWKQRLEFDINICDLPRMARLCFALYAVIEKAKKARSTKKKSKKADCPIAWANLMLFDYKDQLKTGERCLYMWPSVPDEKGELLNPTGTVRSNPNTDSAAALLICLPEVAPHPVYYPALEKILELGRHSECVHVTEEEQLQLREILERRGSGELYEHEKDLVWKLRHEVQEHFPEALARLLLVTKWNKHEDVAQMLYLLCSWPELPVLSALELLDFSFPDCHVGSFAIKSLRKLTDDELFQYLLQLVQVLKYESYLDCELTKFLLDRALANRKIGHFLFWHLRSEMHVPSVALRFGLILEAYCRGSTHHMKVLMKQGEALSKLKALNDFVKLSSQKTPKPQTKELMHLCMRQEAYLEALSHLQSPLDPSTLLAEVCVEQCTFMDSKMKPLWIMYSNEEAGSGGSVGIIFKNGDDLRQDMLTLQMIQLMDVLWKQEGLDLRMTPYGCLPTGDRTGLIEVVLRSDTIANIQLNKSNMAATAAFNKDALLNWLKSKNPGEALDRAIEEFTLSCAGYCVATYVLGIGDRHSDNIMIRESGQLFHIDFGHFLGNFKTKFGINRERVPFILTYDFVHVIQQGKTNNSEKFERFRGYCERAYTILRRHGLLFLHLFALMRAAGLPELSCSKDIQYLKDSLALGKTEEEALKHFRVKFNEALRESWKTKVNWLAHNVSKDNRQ
PI3Kδ, sequence (P27986 whole entry partner, species assumed): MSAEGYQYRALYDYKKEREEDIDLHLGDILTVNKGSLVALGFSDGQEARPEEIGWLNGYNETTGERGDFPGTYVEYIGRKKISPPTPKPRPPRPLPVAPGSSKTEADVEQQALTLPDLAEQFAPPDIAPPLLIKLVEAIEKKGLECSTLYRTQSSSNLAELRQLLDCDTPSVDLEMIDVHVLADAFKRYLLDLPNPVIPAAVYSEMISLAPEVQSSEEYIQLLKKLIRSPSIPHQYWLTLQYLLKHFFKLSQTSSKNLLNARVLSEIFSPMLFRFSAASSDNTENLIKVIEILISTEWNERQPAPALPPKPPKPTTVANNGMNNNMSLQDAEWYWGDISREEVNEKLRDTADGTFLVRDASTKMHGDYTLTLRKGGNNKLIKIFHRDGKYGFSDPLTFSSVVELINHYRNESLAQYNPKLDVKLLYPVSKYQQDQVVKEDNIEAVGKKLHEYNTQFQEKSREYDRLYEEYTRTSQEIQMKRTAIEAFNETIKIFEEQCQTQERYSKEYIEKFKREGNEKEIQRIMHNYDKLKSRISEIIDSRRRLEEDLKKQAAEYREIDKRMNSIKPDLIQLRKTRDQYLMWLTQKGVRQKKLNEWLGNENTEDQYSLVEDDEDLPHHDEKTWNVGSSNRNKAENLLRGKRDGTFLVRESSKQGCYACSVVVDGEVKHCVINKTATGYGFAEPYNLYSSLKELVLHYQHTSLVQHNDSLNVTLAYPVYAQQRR
HDAC1, sequence (Q13547 whole entry, species assumed): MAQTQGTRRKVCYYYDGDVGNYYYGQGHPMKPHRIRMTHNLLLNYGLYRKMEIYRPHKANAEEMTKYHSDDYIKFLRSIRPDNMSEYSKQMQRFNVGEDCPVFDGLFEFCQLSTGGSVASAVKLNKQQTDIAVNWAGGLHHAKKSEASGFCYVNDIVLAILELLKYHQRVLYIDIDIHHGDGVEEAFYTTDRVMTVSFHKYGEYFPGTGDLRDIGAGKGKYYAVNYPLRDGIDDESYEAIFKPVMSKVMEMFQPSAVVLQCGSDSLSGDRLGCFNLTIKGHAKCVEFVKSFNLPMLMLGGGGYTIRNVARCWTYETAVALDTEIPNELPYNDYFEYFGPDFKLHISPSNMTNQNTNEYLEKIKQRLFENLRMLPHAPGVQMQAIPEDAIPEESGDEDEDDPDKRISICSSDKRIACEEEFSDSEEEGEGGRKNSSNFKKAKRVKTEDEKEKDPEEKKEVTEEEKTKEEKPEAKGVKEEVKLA
HDAC2, sequence (Q92769 whole entry, species assumed): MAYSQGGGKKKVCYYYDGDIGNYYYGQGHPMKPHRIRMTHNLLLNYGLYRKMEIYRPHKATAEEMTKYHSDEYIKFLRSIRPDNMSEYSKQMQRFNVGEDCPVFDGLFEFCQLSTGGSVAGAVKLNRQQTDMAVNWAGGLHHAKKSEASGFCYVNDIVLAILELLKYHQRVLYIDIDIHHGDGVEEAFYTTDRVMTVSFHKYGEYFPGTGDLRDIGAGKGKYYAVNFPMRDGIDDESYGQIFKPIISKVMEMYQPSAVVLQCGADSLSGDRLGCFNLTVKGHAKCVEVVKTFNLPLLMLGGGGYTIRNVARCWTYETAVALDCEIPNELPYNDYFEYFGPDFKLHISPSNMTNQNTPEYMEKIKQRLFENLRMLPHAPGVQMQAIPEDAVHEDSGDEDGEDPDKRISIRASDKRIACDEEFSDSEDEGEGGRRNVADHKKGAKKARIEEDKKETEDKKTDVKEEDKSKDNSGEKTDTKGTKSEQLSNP
PI3Kγ, sequence (P48736 whole entry, species assumed): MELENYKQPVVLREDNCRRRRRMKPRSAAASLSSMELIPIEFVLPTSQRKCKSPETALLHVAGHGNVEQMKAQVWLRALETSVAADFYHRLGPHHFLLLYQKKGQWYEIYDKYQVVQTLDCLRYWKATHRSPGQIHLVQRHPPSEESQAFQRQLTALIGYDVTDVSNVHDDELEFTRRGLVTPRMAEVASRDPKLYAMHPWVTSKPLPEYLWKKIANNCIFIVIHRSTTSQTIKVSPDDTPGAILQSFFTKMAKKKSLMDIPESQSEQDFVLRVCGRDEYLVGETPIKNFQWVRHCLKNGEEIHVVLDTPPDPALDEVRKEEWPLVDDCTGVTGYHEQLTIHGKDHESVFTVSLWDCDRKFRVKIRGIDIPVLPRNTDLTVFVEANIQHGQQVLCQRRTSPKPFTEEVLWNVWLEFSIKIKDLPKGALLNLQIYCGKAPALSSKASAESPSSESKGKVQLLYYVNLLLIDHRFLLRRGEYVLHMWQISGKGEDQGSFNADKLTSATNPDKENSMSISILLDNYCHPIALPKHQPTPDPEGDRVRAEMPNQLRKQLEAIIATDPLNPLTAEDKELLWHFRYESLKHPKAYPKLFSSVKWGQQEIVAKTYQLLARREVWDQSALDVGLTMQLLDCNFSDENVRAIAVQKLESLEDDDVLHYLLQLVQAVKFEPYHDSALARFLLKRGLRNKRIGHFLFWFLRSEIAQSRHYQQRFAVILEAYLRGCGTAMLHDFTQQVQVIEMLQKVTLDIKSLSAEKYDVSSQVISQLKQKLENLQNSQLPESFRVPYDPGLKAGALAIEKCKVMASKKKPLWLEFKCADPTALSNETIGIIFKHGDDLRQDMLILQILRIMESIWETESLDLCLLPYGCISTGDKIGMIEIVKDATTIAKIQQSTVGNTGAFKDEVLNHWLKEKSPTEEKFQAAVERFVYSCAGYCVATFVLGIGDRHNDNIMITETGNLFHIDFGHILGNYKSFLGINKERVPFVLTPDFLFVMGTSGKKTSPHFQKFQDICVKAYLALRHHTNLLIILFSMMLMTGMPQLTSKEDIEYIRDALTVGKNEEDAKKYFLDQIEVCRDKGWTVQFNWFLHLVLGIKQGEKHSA
PI3Kβ, sequence (P42338 whole entry, species assumed): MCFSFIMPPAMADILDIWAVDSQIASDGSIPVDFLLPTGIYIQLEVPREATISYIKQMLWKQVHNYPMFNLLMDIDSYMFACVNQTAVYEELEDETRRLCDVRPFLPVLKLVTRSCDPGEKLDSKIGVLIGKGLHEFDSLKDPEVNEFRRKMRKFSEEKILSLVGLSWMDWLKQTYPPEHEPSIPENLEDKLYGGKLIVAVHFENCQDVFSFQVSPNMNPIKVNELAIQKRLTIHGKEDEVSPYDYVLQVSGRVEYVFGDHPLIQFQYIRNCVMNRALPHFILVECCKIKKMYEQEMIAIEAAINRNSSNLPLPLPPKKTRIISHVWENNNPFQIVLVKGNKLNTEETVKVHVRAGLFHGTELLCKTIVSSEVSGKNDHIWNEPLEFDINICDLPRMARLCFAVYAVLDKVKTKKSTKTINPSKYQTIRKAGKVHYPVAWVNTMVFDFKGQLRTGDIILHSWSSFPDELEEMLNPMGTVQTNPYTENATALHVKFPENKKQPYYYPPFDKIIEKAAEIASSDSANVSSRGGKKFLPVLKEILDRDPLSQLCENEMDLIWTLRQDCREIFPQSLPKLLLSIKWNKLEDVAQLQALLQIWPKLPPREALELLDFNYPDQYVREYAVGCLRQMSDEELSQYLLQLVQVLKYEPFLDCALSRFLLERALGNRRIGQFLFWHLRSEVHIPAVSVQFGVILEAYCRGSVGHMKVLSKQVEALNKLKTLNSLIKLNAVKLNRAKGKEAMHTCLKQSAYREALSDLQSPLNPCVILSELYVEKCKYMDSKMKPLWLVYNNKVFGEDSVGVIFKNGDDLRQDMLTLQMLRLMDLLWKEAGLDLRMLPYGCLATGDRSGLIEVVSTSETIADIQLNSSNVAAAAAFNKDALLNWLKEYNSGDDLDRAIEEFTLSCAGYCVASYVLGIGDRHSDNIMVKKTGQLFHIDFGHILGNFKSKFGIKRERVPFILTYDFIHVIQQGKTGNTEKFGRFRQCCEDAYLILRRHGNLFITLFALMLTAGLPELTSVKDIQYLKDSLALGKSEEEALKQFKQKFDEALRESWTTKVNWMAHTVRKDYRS
PI3Kβ, sequence (P27986 whole entry partner, species assumed): as the sequence (P27986 whole entry partner, species assumed) above

| SMILES | pIC50 (PI3Kδ) | pIC50 (HDAC6) | pIC50 (HDAC1) | pIC50 (HDAC2) | pIC50 (PI3Kα) | pIC50 (PI3Kβ) | pIC50 (PI3Kγ) | clinical benefit in clinical studies [1] | safety profile in clinical studies [1] |
| --- | --- | --- | --- | --- | --- | --- | --- | --- | --- |
| COc1ncc(-c2nc(N3CCOCC3)nc3c(OCc4ncc(C(=O)NO)cc4F)cc(F)cc23)cc1NS(C)(=O)=O [Compound 45] | 5.00 to 6.00 | 7.00 to 8.00 | 6.00 to 7.00 | 5.00 to 6.00 |  |  |  |  |  |
| COc1ncc(-c2nc(N3CCOCC3)nc3c(OC4CCN(c5cc(C(=O)NO)no5)CC4)cc(F)cc23)cc1NS(C)(=O)=O [Compound 44] | 7.00 to 8.00 | 7.00 to 8.00 | 6.00 to 7.00 | 6.00 to 7.00 |  |  |  |  |  |
| COc1ncc(-c2nc(N3CCOCC3)nc3c(CNc4ncc(C(=O)NO)cc4F)cc(F)cc23)cc1NS(C)(=O)=O [Compound 35] | ≥ 8.00 | 7.00 to 8.00 | ≥ 8.00 |  |  |  |  |  |  |
| COc1ncc(-c2nc(N3CCOCC3)nc3c(CN4CCC(C(C)(C)O)CC4)cc(F)cc23)cc1NS(C)(=O)=O [YY-20394, N-(5-(6-fluoro-8-((4-(2-hydroxypropyl-2-yl)piperidin-1-yl)methyl)-2-morpholine-quinazolin-4-yl)-2-methoxypyridin-3-yl)methanesulfonamide, reference compound] | ≥ 8.00 | < 5.00 |  |  | 6.00 to 7.00 | 6.00 to 7.00 | < 5.00 | clinical benefit | favorable safety profile |
| COc1ncc(-c2nc(N3CCOCC3)nc3c(OC4CCN(c5c(F)cc(C(=O)NO)cc5F)CC4)cc(F)cc23)cc1NS(C)(=O)=O [Compound 42] | 7.00 to 8.00 | 6.00 to 7.00 | 5.00 to 6.00 |  |  |  |  |  |  |
| COc1ncc(-c2nc(N3CCOCC3)nc3c(OC4CCC(c5ccc(C(=O)NO)cc5F)CC4)cc(F)cc23)cc1NS(C)(=O)=O (stereo not drawn) [Compound 41] | 6.00 to 7.00 | 6.00 to 7.00 | 5.00 to 6.00 |  |  |  |  |  |  |
| COc1ncc(-c2nc(N3CCOCC3)nc3c(CNc4ccc(C(=O)NO)cc4F)cc(F)cc23)cc1NS(C)(=O)=O [Compound 36] | 7.00 to 8.00 | 7.00 to 8.00 | 6.00 to 7.00 |  |  |  |  |  |  |
| COc1ncc(-c2nc(N3CCOCC3)nc3c(CN4CCc5cc(C(=O)NO)cc(F)c5C4)cc(F)cc23)cc1NS(C)(=O)=O [Compound 43] | 7.00 to 8.00 | 6.00 to 7.00 | 5.00 to 6.00 |  |  |  |  |  |  |
